US20240181000A1, “LGG-DERIVED PEPTIDES AND METHODS OF USE THEREOF” (Ohio State Innovation Foundation, priority 2021, published 2024)
No end group written: not given here.

Tested on: biofilm protected APEC
Test: MBEC-HTP assay
Type: cell-based, E. coli
Conditions: at MICs, 18 h; untreated 7.54 ± 0.07
Description: MBEC™-HTP assay: To test the efficacy of the peptides (P1, P2, and P3) against biofilm protected APEC, Innovotech's MBEC Assay® was conducted as described previously(27). Briefly, 150 μL of 0.05 OD600 (5×10^7 CFU/mL) adjusted APEC suspension in LB media was aliquoted into the wells of MBEC™ device containing polystyrene pegs and incubated for 36 h on a rocker platform at 37° C. to allow the biofilm formation. After biofilm formation, the pegs were washed to remove loosely adherent planktonic bacteria and transferred to a new 96-well plate (challenge plate) containing peptides at MICs in 200 μL diluted (25%) LB media. The diluted LB media mimics the minimal media which stimulates biofilm formation and maintenance. The plate was incubated for 18 h at 37° C. with rotation at 150 rpm. Sterile media and DMSO (solvent) were used as controls. Following incubation, the MICs of peptides in challenge plate were recorded. The peptides exposed pegs were transferred to new 96-well plate containing PBS and sonicated for 30 mins to disrupt the biofilm. The sonicated suspensions were then ten-fold serially diluted and plated on LB agar plates to enumerate the biofilm protected bacteria and the minimum biofilm eradication concentration (MBEC) of peptides were determined. Three independent experiments were conducted.

For PDENK [Peptide P2, PDENK], the “Biofilm protected APEC (log CFU/mL)” value was 0.00 ± 0.00 log CFU/mL.
